Source: US20060069132A1, “Azolecarboxamide herbicides” (priority 2004, published 2006)

Key:
[1] = tested on: small flower umbrella sedge; test: Test B flooded paddy test; assay type: in vivo, Cyperus difformis; settings: 1000 g ai/ha, visual rating, scale 0 to 100 (0 no effect, 100 complete control), 13 to 15 days
Method in brief: (§1)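 Read-out: visual comparison with controls, scored 0 to 100, where 100 means complete control and 0 no effect. Formulated chemicals were applied postemergence to plants 2–18 cm tall (1- to 4-leaf), or to flooded-paddy plants at the 2-leaf stage, then held 13 to 15 days under glass.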

morningglory = test: Test B pre-/postemergence herbicide test; assay type: in vivo, Ipomoea coccinea; settings: for Morningglory plant response rating: postemergence, visual rating, scale 0 (no effect) to 100 (complete control)
Method in brief: (§2)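 Pre: seeds sown, then sprayed. Post: 1–4-leaf plants (2–18 cm) sprayed at the same time. Paddy: flooded, treated at 2-leaf stage. Formulation: non-phytotoxic solvent with surfactant. Greenhouse 13–15 days; visual 0–100 score relative to controls.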

velvetleaf = test: Test B pre-/postemergence herbicide test; assay type: in vivo, Abutilon theophrasti; settings: for Velvetleaf plant response rating: postemergence, visual rating, scale 0 (no effect) to 100 (complete control)
Method in brief: (§3)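 Greenhouse pot assay with simultaneous preemergence (treated seed) and postemergence (2–18 cm seedlings) applications of surfactant-containing, non-phytotoxic solvent formulations. Response scored visually 13–15 days later on a 0–100 scale, 100 meaning complete control.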

cocklebur = test: Test B pre-/postemergence herbicide test; assay type: in vivo, Xanthium strumarium; settings: for Cocklebur plant response rating: postemergence, visual rating, scale 0 (no effect) to 100 (complete control)
Method in brief: as §2

barnyardgrass [2] = test: Test B flooded paddy test; assay type: in vivo, Echinochloa crus-galli; settings: 1000 g ai/ha, visual rating, scale 0 to 100 (0 no effect, 100 complete control), 13 to 15 days
Method in brief: as §1

ducksalad = test: Test B flooded paddy test; assay type: in vivo, Heteranthera limosa; settings: 1000 g ai/ha, visual rating, scale 0 to 100 (0 no effect, 100 complete control), 13 to 15 days
Method in brief: as §1

corn = test: Test B pre-/postemergence herbicide test; assay type: in vivo, Zea mays; settings: for Corn plant response rating: postemergence, visual rating, scale 0 (no effect) to 100 (complete control)
Method in brief: as §3

lambsquarters = test: Test B pre-/postemergence herbicide test; assay type: in vivo, Chenopodium album; settings: for Lambsquarters plant response rating: postemergence, visual rating, scale 0 (no effect) to 100 (complete control)
Method in brief: as §3

Surinam grass = test: Test B pre-/postemergence herbicide test; assay type: in vivo, Urochloa decumbens; settings: for Surinam Grass plant response rating: postemergence, visual rating, scale 0 (no effect) to 100 (complete control)
Method in brief: as §3

blackgrass = test: Test B postemergence herbicide test; assay type: in vivo, Alopecurus myosuroides; settings: postemergence, visual rating, scale 0 (no effect) to 100 (complete control)
Method in brief: as §1

rice [3] = test: Test B flooded paddy test; assay type: in vivo, Oryza sativa; settings: 1000 g ai/ha, visual rating, scale 0 to 100 (0 no effect, 100 complete control), 13 to 15 days
Method in brief: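 Greenhouse test; postemergence application to plants at 1–4 leaves (2–18 cm); paddy species at 2 leaves; evaluated visually vs controls at 13–15 days; scale 0–100 (100 = complete control).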

giant foxtail = test: Test B pre-/postemergence herbicide test; assay type: in vivo, Setaria faberi; settings: for Foxtail, Giant plant response rating: postemergence, visual rating, scale 0 (no effect) to 100 (complete control)
Method in brief: as §3

wheat = test: Test B postemergence herbicide test; assay type: in vivo, Triticum aestivum; set-up: key to Wheat plant response rating: 0 = no effect, 100 = complete control; settings: postemergence, visual rating, scale 0 (no effect) to 100 (complete control)
Method in brief: (§4)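 Postemergence plants were sprayed with formulated test chemicals at 2 to 18 cm height (1- to 4-leaf stage); paddy species were grown to the 2-leaf stage. After 13 to 15 days in a greenhouse, injury was rated visually against untreated controls on a 0–100 scale (0 = no effect, 100 = complete control).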

pigweed = test: Test B pre-/postemergence herbicide test; assay type: in vivo, Amaranthus retroflexus; settings: for Pigweed plant response rating: postemergence, visual rating, scale 0 (no effect) to 100 (complete control)
Method in brief: as §3

large crabgrass = test: Test B pre-/postemergence herbicide test; assay type: in vivo, Digitaria sanguinalis; settings: for Crabgrass, Large plant response rating: postemergence, visual rating, scale 0 (no effect) to 100 (complete control)
Method in brief: as §3

rice [4] = test: Test B pre-/postemergence herbicide test; assay type: in vivo, Oryza sativa; settings: preemergence
Method in brief: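 Species tested were Echinochloa crus-galli, Ipomoea coccinea, Xanthium strumarium and Oryza sativa, treated both before emergence and at the 1- to 4-leaf stage; rice and barnyardgrass were also tested under flooding at 2 leaves. Greenhouse incubation lasted 13–15 days before visual 0–100 scoring.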

wild oat = test: Test B postemergence herbicide test; assay type: in vivo, Avena fatua; settings: postemergence, visual rating, scale 0 (no effect) to 100 (complete control)
Method in brief: as §4

barnyardgrass [5] = test: Test B pre-/postemergence herbicide test; assay type: in vivo, Echinochloa crus-galli; settings: for Barnyardgrass plant response rating: postemergence, visual rating, scale 0 (no effect) to 100 (complete control)
Method in brief: as §2

[6] = 125 g ai/ha, 0 = no effect, 100 = complete control, preemergence
[7] = 500 g ai/ha, visual rating 0-100, 0 no effect, 100 complete control, preemergence

CCN(CC)C(=O)c1cccc(NC(=O)c2nn(C(C)(C)C)cc2C(F)(F)F)c1 [Compound 169]
Sedge, Umbrella plant response rating [1]: 0
Morningglory plant response rating (0 to 100 scale) (morningglory; [6]): 0
Plant response rating, Morningglory (morningglory; [7]): 10
Morningglory plant response rating (morningglory; 125 g ai/ha): 20
Morningglory plant response rating (morningglory; 500 g ai/ha): 70
Velvetleaf plant response rating (0 to 100 scale) (velvetleaf; [6]): 0
Plant response rating, Velvetleaf (velvetleaf; [7]): 0
Velvetleaf plant response rating (velvetleaf; 125 g ai/ha): 0
Velvetleaf plant response rating (velvetleaf; 500 g ai/ha): 0
Cocklebur plant response rating (0 to 100 scale) (cocklebur; [6]): 0
Plant response rating, Cocklebur (cocklebur; [7]): 0
Cocklebur plant response rating (cocklebur; 125 g ai/ha): 0
Cocklebur plant response rating (cocklebur; 500 g ai/ha): 0
Barnyardgrass plant response rating (barnyardgrass [2]): 0
Ducksalad plant response rating (ducksalad): 0
Corn plant response rating (0 to 100 scale) (corn; [6]): 0
Plant response rating, Corn (corn; [7]): 0
Corn plant response rating (corn; 125 g ai/ha): 10
Corn plant response rating (corn; 500 g ai/ha): 10
Lambsquarters plant response rating (0 to 100 scale) (lambsquarters; [6]): 0
Plant response rating, Lambsquarters (lambsquarters; [7]): 60
Lambsquarters plant response rating (lambsquarters; 125 g ai/ha): 40
Lambsquarters plant response rating (lambsquarters; 500 g ai/ha): 60
Surinam Grass plant response rating (0 to 100 scale) (Surinam grass; [6]): 0
Plant response rating, Surinam Grass (Surinam grass; [7]): 10
Surinam Grass plant response rating (Surinam grass; 125 g ai/ha): 0
Surinam Grass plant response rating (Surinam grass; 500 g ai/ha): 10
Blackgrass plant response rating (blackgrass; 125 g ai/ha): 0
Blackgrass plant response rating (blackgrass; 500 g ai/ha): 10
Rice plant response rating (rice [3]): 0
Foxtail, Giant plant response rating (0 to 100 scale) (giant foxtail; [6]): 0
Plant response rating, Foxtail, Giant (giant foxtail; [7]): 10
Foxtail, Giant plant response rating (giant foxtail; 125 g ai/ha): 0
Foxtail, Giant plant response rating (giant foxtail; 500 g ai/ha): 0
Wheat plant response rating (wheat; 125 g ai/ha): 0
Wheat plant response rating (wheat; 500 g ai/ha): 0
Pigweed plant response rating (0 to 100 scale) (pigweed; [6]): 0
Plant response rating, Pigweed (pigweed; [7]): 100
Pigweed plant response rating (pigweed; 125 g ai/ha): 20
Pigweed plant response rating (pigweed; 500 g ai/ha): 40
Crabgrass, Large plant response rating (0 to 100 scale) (large crabgrass; [6]): 0
Plant response rating, Crabgrass, Large (large crabgrass; [7]): 40
Crabgrass, Large plant response rating (large crabgrass; 125 g ai/ha): 10
Crabgrass, Large plant response rating (large crabgrass; 500 g ai/ha): 10
Rice plant response rating (0 to 100 scale) (rice [4]; 125 g ai/ha, 0 = no effect, 100 = complete control): 0
Plant response rating, Rice (rice [4]; 500 g ai/ha, visual rating 0-100, 0 no effect, 100 complete control): 0
Oat, Wild plant response rating (wild oat; 125 g ai/ha): 10
Oat, Wild plant response rating (wild oat; 500 g ai/ha): 10
Barnyardgrass plant response rating (0 to 100 scale) (barnyardgrass [5]; [6]): 0
Plant response rating, Barnyardgrass (barnyardgrass [5]; [7]): 10
Barnyardgrass plant response rating (barnyardgrass [5]; 125 g ai/ha): 0
Barnyardgrass plant response rating (barnyardgrass [5]; 500 g ai/ha): 10
